According to ChEMBL document CHEMBL5034040, “Amide-to-Ester Substitution as a Strategy for Optimizing PROTAC Permeability and Cellular Activity” (J Med Chem, 2021):

Assay: Permeability of the compound in PBS at pH 7.4 after 16 hrs by PAMPA
Type: ADME
Conditions: read-out: Peff

Cc1ncsc1-c1ccc([C@H](C)NC(=O)[C@@H]2C[C@@H](O)CN2C(=O)[C@@H](NC(=O)COCCCOCCNC(=O)C[C@@H]2N=C(c3ccc(Cl)cc3)c3c(sc(C)c3C)-n3c(C)nnc32)C(C)(C)C)cc1
Papp at 16 h: 0.2 ×10⁻⁶ cm/s

Cc1ncsc1-c1ccc(CNC(=O)[C@@H]2C[C@@H](O)CN2C(=O)[C@@H](NC(=O)COCCOCCOCCNC(=O)C[C@@H]2N=C(c3ccc(Cl)cc3)c3c(sc(C)c3C)-n3c(C)nnc32)C(C)(C)C)cc1
Papp at 16 h: 0.01 ×10⁻⁶ cm/s
